In this assay the target is T1, catalytic domain of Human PARP (Homo sapiens, UniProt P09874).
T1 construct: The catalytic domain of Human PARP was cloned and prepared; made in house
In words: Biacore surface plasmon resonance affinity assay. The format is binding. As to conditions: pKD=-log10 KD, KD in mol/L; Biacore T100, 25° C.; read-out: pKD (converted). On the procedure: Dissociation Constant (KD) from Surface Plasmon Resonance
The catalytic domain of Human PARP was cloned and prepared as described in Kinoshita, et al. FEBS Letters (2006), 556:43-46. Purified enzyme was stored at −80° C. in 25 mM Tris(hydroxymethyl)aminomethane (‘Tris’) pH 7.4, 150 mM NaCl, 2 mM dithiothreitol (DTT) at a concentration of 6 mg/mL.
Biacore affinity assays for test compounds were conducted on a Biacore T100 (GE Healthcare) as follows. A Series S Sensor Chip CM5 (part number BR-1006-68, GE Healthcare) was activated for amide coupling with an Amine Coupling Kit (part number BR-1000-50, GE Healthcare) as described by the manufacturer. The mobile phase buffer consisted of Biacore buffer HBS-P (part number BR-1003-68, GE Healthcare) supplemented with 1% v/v dimethylsulfoxide (DMSO), 0.5 mM Tris(2-carboxyethyl)phosphine hydrochloride (TCEP), and 5 mM MgCl2. Enzyme samples (2 μL/6 mg/mL) stored at −80° C. were diluted to 0.080 mg/mL with 10 mM 4-morpholineethanesulfonic acid (MES) pH 6.5 and then mounted on the activated Biacore CM5 chip at a flow rate of 10 μL/min for 240 seconds. […] Test compounds were diluted 9 times 2-fold serially in mobile phase buffer (listed above) at 1% v/v DMSO final to generate a concentration gradient bracketing their anticipated KDs. Biacore mounted PARP was given a 1 minute exposure (association phase) to various concentrations of test compounds to observe a steady state equilibrium or an on-rate. The exposure was followed with a dissociation phase of 5 minutes. The association and dissociation phases were at a flow rate of 50 μL/min and a temperature of 25° C.
Parameters Rmax (response at saturation) and KD (binding constant) were calculated through a nonlinear least squares fitting of the equation to the data by use of the Biacore T100 analysis software.
Parameter optimization was through a nonlinear least squares analysis of the association phase Response=Rmax*(1−exp(−(kon[cmpd]+koff)*t)) and dissociation phase Response=[…] by use of the Biacore T100 analysis software. The binding constant KD was calculated from the definition KD=koff/kon

T1 sequence (P09874 788-1014 limits assumed): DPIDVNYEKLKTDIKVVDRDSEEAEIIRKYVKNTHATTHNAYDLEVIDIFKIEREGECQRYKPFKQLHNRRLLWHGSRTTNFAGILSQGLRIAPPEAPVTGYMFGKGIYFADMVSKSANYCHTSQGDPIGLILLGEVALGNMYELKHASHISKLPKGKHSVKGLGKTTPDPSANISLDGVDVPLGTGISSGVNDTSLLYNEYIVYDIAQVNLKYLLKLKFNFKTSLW

On to `CC1Oc2cc(CN(C)CCc3ccccc3)ccc2NC1=O` (centres unmarked) [Compound 91, 2-Methyl-7-((methyl(phenethyl)amino)methyl)-2H-benzo[b][1,4]oxazin-3(4H)-one], for which the Kd is 1.26 to 10 µM. The same measure for `CC1Oc2ccc(CN(C)c3ccccn3)cc2NC1=O` (centres unmarked) [Compound 67, 2-Methyl-6-((methyl(pyridin-2-yl)amino)methyl)-2H-benzo[b][1,4]oxazin-3(4H)-one]: 12.6 to 79.4 µM; for `CN(C)C1CCN(Cc2ccc3c(c2)NC(=O)CO3)CC1` [Compound 24, 6-((4-(Dimethylamino)piperidin-1-yl)methyl)-2H-benzo[b][1,4]oxazin-3(4H)-one]: 12.6 to 79.4 µM. With `CC1Oc2ccc(CN3CCN(C4CCCC4)CC3)cc2NC1=O` (centres unmarked) [Compound 40, 6-((4-Cyclopentylpiperazin-1-yl)methyl)-2-methyl-2H-benzo[b][1,4]oxazin-3(4H)-one] the figure was 0.126 to 1 µM; with `CC1Oc2ccc(CN3CCN(CC(=O)O)CC3)cc2NC1=O` (centres unmarked) [Compound 168, 2-(4-((2-Methyl-3-oxo-3,4-dihydro-2H-benzo[b][1,4]oxazin-6-yl)methyl)piperazin-1-yl)acetic acid], at least 100 µM. With `CC1Oc2ccc(CN3CCN(Cc4cccc(Br)c4)CC3)cc2NC1=O` (centres unmarked) [Compound 43, 6-((4-(3-Bromobenzyl)piperazin-1-yl)methyl)-2-methyl-2H-benzo[b][1,4]oxazin-3(4H)-one] the figure was 1.26 to 10 µM; with `O=C1COc2ccc(CN3CCOCC3)cc2N1` [Compound 26, 6-(Morpholinomethyl)-2H-benzo[b][1,4]oxazin-3(4H)-one], 1.26 to 10 µM. Turning to `CNC(=O)c1cccc(-c2ccc3c(c2)NC(=O)C(C)O3)c1` (centres unmarked) [Compound 143, N-Methyl-3-(2-methyl-3-oxo-3,4-dihydro-2H-benzo[b][1,4]oxazin-6-yl)benzamide], the Kd was above 10 µM. Turning to `CC1Oc2ccc(CN3CCC(c4ccc(Cl)cc4)CC3)cc2NC1=O` (centres unmarked) [Compound 38, 6-((4-(4-Chlorophenyl)piperidin-1-yl)methyl)-2-methyl-2H-benzo[b][1,4]oxazin-3(4H)-one], the Kd was at most 0.01 µM. The same measure for `CNC(=O)CC1CCN(Cc2ccc3c(c2)NC(=O)C(C)O3)CC1` (centres unmarked) [Compound 182, N-Methyl-2-(1-((2-methyl-3-oxo-3,4-dihydro-2H-benzo[b][1,4]oxazin-6-yl)methyl)piperidin-4-yl)acetamide]: 12.6 to 79.4 µM; for `CC1Oc2ccc(CN(C)CC(=O)NCc3ccccc3)cc2NC1=O` (centres unmarked) [Compound 134, N-Benzyl-2-(methyl((2-methyl-3-oxo-3,4-dihydro-2H-benzo[b][1,4]oxazin-6-yl)methyl)amino)acetamide]: 1.26 to 10 µM; for `O=C1COc2ccc(CCN3CCN(c4nc5ccccc5[nH]4)CC3)cc2N1` [Compound 129, 6-(2-(4-(1H-Benzo[d]imidazol-2-yl)piperazin-1-yl)ethyl)-2H-benzo[b][1,4]oxazin-3(4H)-one]: 12.6 to 79.4 µM. `CCS(=O)(=O)c1ccc2c(c1)NC(=O)C(C)O2` (centres unmarked) [Compound 23, 6-(Ethylsulfonyl)-2-methyl-2H-benzo[b][1,4]oxazin-3(4H)-one]: the Kd was 12.6 to 79.4 µM. With `CC1Oc2ccc(CN(C)CC(=O)N(C)Cc3ccccc3)cc2NC1=O` (centres unmarked) [Compound 135, N-Benzyl-N-methyl-2-(methyl((2-methyl-3-oxo-3,4-dihydro-2H-benzo[b][1,4]oxazin-6-yl)methyl)amino)acetamide] the figure was 12.6 to 79.4 µM. The same measure for `O=C1COc2ccc(CCN3CC=C(c4ccc(Cl)cc4)CC3)cc2N1` [Compound 127, 6-(2-(4-(4-Chlorophenyl)-5,6-dihydropyridin-1(2H)-yl)ethyl)-2H-benzo[b][1,4]oxazin-3(4H)-one]: 1.26 to 10 µM; for `CC1Oc2cc(CN3CCCC(c4ccccc4)C3)ccc2NC1=O` (centres unmarked) [Compound 95, 2-Methyl-7-((3-phenylpiperidin-1-yl)methyl)-2H-benzo[b][1,4]oxazin-3(4H)-one]: 1.26 to 10 µM; for `CC1Oc2cc(CN3CCC(c4ccccc4N)CC3)ccc2NC1=O` (centres unmarked) [Compound 204, 7-((4-(2-aminophenyl)piperidin-1-yl)methyl)-2-methyl-2H-benzo[b][1,4]oxazin-3(4H)-one]: 12.6 to 79.4 µM.

For `CC1Oc2cc(CN3CCN(c4ccncc4)CC3)ccc2NC1=O` (centres unmarked) [Compound 202, 2-Methyl-7-((4-(pyridin-4-yl)piperazin-1-yl)methyl)-2H-benzo[b][1,4]oxazin-3(4H)-one], the Kd was at least 100 µM. With `Cc1ccc2c(c1)CCCN2Cc1ccc2c(c1)NC(=O)C(C)O2` (centres unmarked) [Compound 83, 2-Methyl-6-((6-methyl-3,4-dihydroquinolin-1(2H)-yl)methyl)-2H-benzo[b][1,4]oxazin-3(4H)-one] the figure was above 10 µM; with `CC1Oc2ccc(CN3CCC(c4ccc(F)cc4)CC3)cc2NC1=O` (centres unmarked) [Compound 37, 6-((4-(4-Fluorophenyl)piperidin-1-yl)methyl)-2-methyl-2H-benzo[b][1,4]oxazin-3(4H)-one], 0.0126 to 0.1 µM. As for `CC1Oc2ccc(-c3ccc(C(N)=O)cc3)cc2NC1=O` (centres unmarked) [Compound 150, 4-(2-Methyl-3-oxo-3,4-dihydro-2H-benzo[b][1,4]oxazin-6-yl)benzamide], the Kd is above 10 µM. With `CCNC(=O)CN1CCN(Cc2ccc3c(c2)NC(=O)C(C)O3)CC1` (centres unmarked) [Compound 178, N-Ethyl-2-(4-((2-methyl-3-oxo-3,4-dihydro-2H-benzo[b][1,4]oxazin-6-yl)methyl)piperazin-1-yl)acetamide] the figure was above 10 µM. With `CC(=O)Nc1cccc(-c2ccc3c(c2)NC(=O)C(C)O3)c1` (centres unmarked) [Compound 148, N-(3-(2-Methyl-3-oxo-3,4-dihydro-2H-benzo[b][1,4]oxazin-6-yl)phenyl)acetamide] the figure was above 10 µM; with `O=C1COc2ccc(CNCC3CCCCC3)cc2N1` [Compound 30, 6-((Cyclohexylmethylamino)methyl)-2H-benzo[b][1,4]oxazin-3(4H)-one], 1.26 to 10 µM. On to `O=C1Nc2cc(CN3CCC(c4ccccc4)CC3)ccc2OC1F` (centres unmarked) [Compound 96, 2-Fluoro-6-((4-phenylpiperidin-1-yl)methyl)-2H-benzo[b][1,4]oxazin-3(4H)-one], for which the Kd was 0.126 to 1 µM. Regarding `CC1Oc2ccc(-c3cccc(C(=O)N4CCCC4)c3)cc2NC1=O` (centres unmarked) [Compound 145, 2-Methyl-6-(3-(pyrrolidine-1-carbonyl)phenyl)-2H-benzo[b][1,4]oxazin-3(4H)-one], the Kd is above 10 µM. As for `CNC(=O)OCCCc1ccc2c(c1)NC(=O)C(C)O2` (centres unmarked) [Compound 189, 3-(2-Methyl-3-oxo-3,4-dihydro-2H-benzo[b][1,4]oxazin-6-yl)propyl methylcarbamate], the Kd was above 10 µM. With `CC1Oc2cc(CN3CCN(c4ccccc4O)CC3)ccc2NC1=O` (centres unmarked) [Compound 209, 7-((4-(2-Hydroxyphenyl)piperazin-1-yl)methyl)-2-methyl-2H-benzo[b][1,4]oxazin-3(4H)-one] the figure was 12.6 to 79.4 µM.

For `CC(C)CNC(=O)CN1CCN(Cc2ccc3c(c2)NC(=O)C(C)O3)CC1` (centres unmarked) [Compound 173, N-Isobutyl-2-(4-((2-methyl-3-oxo-3,4-dihydro-2H-benzo[b][1,4]oxazin-6-yl)methyl)piperazin-1-yl)acetamide], the Kd was 1.26 to 10 µM. With `O=C1COc2ccc(CNCc3ccccc3)cc2N1` [Compound 29, 6-((Benzylamino)methyl)-2H-benzo[b][1,4]oxazin-3(4H)-one] the figure was 1.26 to 10 µM; with `CC1Oc2ccc(CN3CCC(c4ccc(C(=O)O)cc4)CC3)cc2NC1=O` (centres unmarked) [Compound 216, 4-(1-((2-Methyl-3-oxo-3,4-dihydro-2H-benzo[b][1,4]oxazin-6-yl)methyl)piperidin-4-yl)benzoic acid], 1.26 to 10 µM; with `O=C1COc2ccc(CN3CCC(c4ccccc4)CC3)cc2N1` [Compound 25, 6-((4-Phenylpiperidin-1-yl)methyl)-2H-benzo[b][1,4]oxazin-3(4H)-one], 0.126 to 1 µM. Consider `CC(=O)Nc1ccc2c(c1)CN(Cc1ccc3c(c1)NC(=O)C(C)O3)C2` (centres unmarked) [Compound 242, N-(2-((2-Methyl-3-oxo-3,4-dihydro-2H-benzo[b][1,4]oxazin-6-yl)methyl)isoindolin-5-yl)acetamide], for which the Kd is 1.26 to 10 µM. With `CC1Oc2ccc(CCCO)cc2NC1=O` (centres unmarked) [Compound 188, 6-(3-Hydroxypropyl)-2-methyl-2H-benzo[b][1,4]oxazin-3(4H)-one], the Kd is above 10 µM. With `CC1Oc2ccc(CN3CCC(c4noc5cc(F)ccc45)CC3)cc2NC1=O` (centres unmarked) [Compound 55, 6-((4-(6-Fluorobenzo[d]isoxazol-3-yl)piperidin-1-yl)methyl)-2-methyl-2H-benzo[b][1,4]oxazin-3(4H)-one] the figure was 1.26 to 10 µM.

(Values after patent US8669249B2, “Poly (ADP-ribose) polymerase (PARP) inhibitors” (Takeda Pharmaceutical Company Limited, priority 2009, dated 2014).)
